From ChEMBL document CHEMBL5365394, “Design, synthesis and biological evaluation of novel spiro-quinazolinone derivatives as chitin synthase inhibitors and antifungal agents” (Eur J Med Chem, 2023)
Values after ≈ are worked out from the molar mass of the structure shown.

Legend:
[1] = tested on: Aspergillus fumigatus; assay: Antifungal activity against Aspergillus fumigatus GIMCC 3.19 assessed as fungal growth inhibition incubated for 24 hrs by two-fold serial dilution method; type: functional
[2] = tested on: Cryptococcus neoformans; assay: Antifungal activity against Cryptococcus neoformans ATCC 32719 assessed as fungal growth inhibition incubated for 24 hrs by two-fold serial dilution method; type: functional
[3] = tested on: Candida tropicalis; assay: Inhibition of Candida tropicalis ATCC 750 chitin synthase using […] as substrate at 300 ug/ml incubated for 1 hr by absorbance based assay relative to control; conditions: dose 300.0 µg/ml
[4] = tested on: Aspergillus flavus; assay: Antifungal activity against Aspergillus flavus ATCC 16870 assessed as fungal growth inhibition incubated for 24 hrs by two-fold serial dilution method; type: functional
[5] = tested on: Candida albicans; assay: Antifungal activity against Candida albicans ATCC 76615 assessed as fungal growth inhibition incubated for 24 hrs by two-fold serial dilution method; type: functional
[6] = Inhibition of Candida tropicalis ATCC 750 chitin synthase using UDP-GlcNAc as substrate incubated for 1 hr by absorbance based assay
[7] = tested on: Aspergillus fumigatus; assay: Antifungal activity against Fluconazole-resistant Aspergillus fumigatus GIMCC 3.19R assessed as fungal growth inhibition; type: functional
[8] = tested on: Candida albicans; assay: Antifungal activity against Fluconazole-resistant Candida albicans ATCC 76615R assessed as fungal growth inhibition; type: functional
[9] = tested on: Cryptococcus neoformans; assay: Antifungal activity against Fluconazole-resistant Cryptococcus neoformans ATCC 32719R assessed as fungal growth inhibition; type: functional
[10] = tested on: Aspergillus flavus; assay: Antifungal activity against Fluconazole-resistant Aspergillus flavus ATCC 16870R assessed as fungal growth inhibition; type: functional
[11] = Cytotoxicity against human A549 cells assessed as cell viability at 16 ug/ml incubated for 24 hrs by CCK-8 assay relative to control; type: toxicity, cell-based; conditions: at 16 µg/mL, read-out: Activity
[12] = tested on: Candida albicans; assay: Antifungal activity against Candida albicans ATCC 76615 assessed as inhibition of cell wall synthesis incubated for 24 hrs in absence of sorbitol; type: functional
[13] = tested on: Cryptococcus neoformans; assay: Antifungal activity against Cryptococcus neoformans ATCC 32719 assessed as inhibition of cell wall synthesis incubated for 24 hrs in presence of sorbitol; type: functional
[14] = Cytotoxicity against human A549 cells assessed as cell viability at 64 ug/ml incubated for 24 hrs by CCK-8 assay relative to control; type: toxicity, cell-based; conditions: at 64 µg/mL, read-out: Activity
[15] = tested on: Cryptococcus neoformans; assay: Antifungal activity against Cryptococcus neoformans ATCC 32719 assessed as inhibition of cell wall synthesis incubated for 24 hrs in absence of sorbitol; type: functional
[16] = tested on: Aspergillus fumigatus; assay: Antifungal activity against Aspergillus fumigatus GIMCC 3.19 assessed as inhibition of cell wall synthesis incubated for 24 hrs in presence of sorbitol; type: functional
[17] = tested on: Aspergillus fumigatus; assay: Antifungal activity against Aspergillus fumigatus GIMCC 3.19 assessed as inhibition of cell wall synthesis incubated for 24 hrs in absence of sorbitol; type: functional
[18] = Cytotoxicity against human A549 cells assessed as cell viability at 8 ug/ml incubated for 24 hrs by CCK-8 assay relative to control; type: toxicity, cell-based; conditions: at 8 µg/mL, read-out: Activity
[19] = Cytotoxicity against human A549 cells assessed as cell viability at 4 ug/ml incubated for 24 hrs by CCK-8 assay relative to control; type: toxicity, cell-based; conditions: at 4 µg/mL, read-out: Activity
[20] = tested on: Candida albicans; assay: Antifungal activity against Candida albicans ATCC 76615 assessed as inhibition of cell wall synthesis incubated for 24 hrs in presence of sorbitol; type: functional
[21] = tested on: Aspergillus flavus; assay: Antifungal activity against Aspergillus flavus ATCC 16870 assessed as inhibition of cell wall synthesis incubated for 24 hrs in absence of sorbitol; type: functional
[22] = tested on: A549; assay: Cytotoxicity against human A549 cells assessed as cell viability incubated for 24 hrs at 128 ug/ml by CCK-8 assay relative to control; conditions: dose 128 µg/ml
[23] = Cytotoxicity against human A549 cells assessed as cell viability at 32 ug/ml incubated for 24 hrs by CCK-8 assay relative to control; type: toxicity, cell-based; conditions: at 32 µg/mL, read-out: Activity
[24] = tested on: Aspergillus flavus; assay: Antifungal activity against Aspergillus flavus ATCC 16870 assessed as inhibition of cell wall synthesis incubated for 24 hrs in presence of sorbitol; type: functional

| SMILES | MIC [1] [µg/mL] | MIC [2] [µg/mL] | inhibition [3] [%] | MIC [4] [µg/mL] | MIC [5] [µg/mL] | IC50 [6] [µM] | further results |
| --- | --- | --- | --- | --- | --- | --- | --- |
| O=C(/C=C/C(=O)Nc1ccc2c(c1)C(=O)NC1(CCOC1)N2)Nc1ccc(F)c(Cl)c1 (configuration not stated) | 64 (≈ 144 µM) | 128 (≈ 288 µM) | 56.8 | 64 (≈ 144 µM) | 128 (≈ 288 µM) | – | – |
| O=C(/C=C/C(=O)Nc1ccc2c(c1)C(=O)NC1(CCCC1)N2)Nc1ccc(F)c(Cl)c1 | 128 (≈ 289 µM) | 128 (≈ 289 µM) | 48.2 | 128 (≈ 289 µM) | 128 (≈ 289 µM) | – | – |
| O=C(/C=C/C(=O)Nc1ccccc1Cl)Nc1ccc2c(c1)C(=O)NC1(CCOC1)N2 (configuration not stated) | 64 (≈ 150 µM) | 128 (≈ 300 µM) | 53.7 | 128 (≈ 300 µM) | 128 (≈ 300 µM) | – | – |
| O=C(/C=C/C(=O)Nc1ccc2c(c1)C(=O)NC1(CCSC1)N2)Nc1ccc(F)c(Cl)c1 (configuration not stated) | 64 (≈ 139 µM) | 32 (≈ 69.4 µM) | 64.4 | 32 (≈ 69.4 µM) | 16 (≈ 34.7 µM) | 267 | – |
| O=C(/C=C/C(=O)Nc1ccc2c(c1)C(=O)NC1(CCOC1)N2)Nc1ccc(Br)cc1 (configuration not stated) | 64 (≈ 136 µM) | 32 (≈ 67.9 µM) | 63.1 | 64 (≈ 136 µM) | 32 (≈ 67.9 µM) | – | – |
| O=C(/C=C/C(=O)Nc1ccc2c(c1)C(=O)NC1(CCSC1)N2)Nc1ccccc1 (configuration not stated) | 128 (≈ 313 µM) | 128 (≈ 313 µM) | 44.2 | 256 (≈ 627 µM) | 128 (≈ 313 µM) | 1870 | – |
| Cc1cccc(NC(=O)/C=C/C(=O)Nc2ccc3c(c2)C(=O)NC2(CCSC2)N3)c1 (configuration not stated) | 128 (≈ 303 µM) | 64 (≈ 151 µM) | 47.2 | 128 (≈ 303 µM) | 64 (≈ 151 µM) | 800 | – |
| OC(Cn1cncn1)(Cn1cncn1)c1ccc(F)cc1F [FLUCONAZOLE] | 8 (≈ 26.1 µM) | 4 (≈ 13.1 µM) | – | 4 (≈ 13.1 µM) | 2 (≈ 6.53 µM) | – | MIC [7]: 256 µg/mL (≈ 836 µM); MIC [8]: 256 µg/mL (≈ 836 µM); MIC [9]: 256 µg/mL (≈ 836 µM); MIC [10]: 256 µg/mL (≈ 836 µM) |
| O=C(/C=C/C(=O)Nc1ccc2c(c1)C(=O)NC1(CCCC1)N2)Nc1ccc(Br)cc1 | 128 (≈ 273 µM) | 64 (≈ 136 µM) | 56.4 | 128 (≈ 273 µM) | 128 (≈ 273 µM) | – | – |
| O=C(/C=C/C(=O)Nc1ccc2c(c1)C(=O)NC1(CCSC1)N2)Nc1cccc(Cl)c1 (configuration not stated) | 32 (≈ 72.2 µM) | 64 (≈ 144 µM) | 60.9 | 64 (≈ 144 µM) | 32 (≈ 72.2 µM) | 282 | – |
| NC(=O)OC[C@H](O)[C@@H](O)[C@H](N)C(=O)N[C@H](C(=O)O)[C@H]1O[C@@H](n2cc(CO)c(=O)[nH]c2=O)[C@H](O)[C@@H]1O [POLYOXIN B] | 16 (≈ 31.5 µM) | 16 (≈ 31.5 µM) | 84.7 | 16 (≈ 31.5 µM) | 8 (≈ 15.8 µM) | 93.5 | viability at 24 h, 16 ug/ml [11]: 97.9%; MIC [12]: 8 µg/mL (≈ 15.8 µM); MIC [13]: 64 µg/mL; viability at 24 h, 64 ug/ml [14]: 91.2%; MIC [15]: 16 µg/mL (≈ 31.5 µM); MIC [16]: 128 µg/mL; MIC [17]: 16 µg/mL (≈ 31.5 µM); viability at 24 h, 8 ug/ml [18]: 98.7%; viability at 24 h, 4 ug/ml [19]: 99.3%; MIC [20]: 128 µg/mL; MIC [21]: 16 µg/mL (≈ 31.5 µM); viability [22]: 84.3%; viability at 24 h, 32 ug/ml [23]: 92.7%; MIC [24]: 128 µg/mL |
